Reference: patent publication US8940271B2, “Transmucosal administration of drug compositions for treating and preventing disorders in animals” (Abbott Laboratories, priority 2005, dated 2015)
Where two headings read alike, the source gives them in different places.

How the values were obtained:
[1] = cited from earlier work
[2] = pH dependence of dissolution/precipitation of 1% meloxicam; type: physicochemical
Experimental: NaOH solution (1 M) was added to the mixture to provide a pH of 10. […] Each solution was then titrated with HCl (aq). […] Similarly, for the 85:15 water:ethanol solvent system, a precipitate formed when the initial apparent pH of 12 was reduced to 7.7 (by addition of HCl).

[3] = Stability of meloxicam with various solubilizing agents; type: physicochemical; conditions: storage with PVA, Polysorbate 80 or glycerin
[4] = pH dependence of dissolution/precipitation of 1% meloxicam; type: physicochemical; conditions: 95:5 water:propylene glycol, concentrated NaOH solution (10 M) added
[5] = Canine anesthetized meloxicam absorption study; conditions: TMOM
Experimental: A canine anesthetized absorption study was also carried out. The subjects were anesthetized dogs using minimal pre-anesthetics (isoflurane via an endotracheal tube). The possibility of run off into and absorption by the gastrointestinal tract was prevented by obstructing the esophagus with a Foley catheter. […] Blood samples were taken 0, 5, 30 min, and 1, 2, 4, 8, 12, 24, and 72 hours post-dose. Jugular and cephalic vein samples were obtained 5, 30 min and 4, 8 hours post-dose.

[6] = Canine meloxicam absorption study (TMOM vs oral suspension); conditions: ~0.2 mg/kg, dogs
Experimental: The average oral suspension dose was 0.20 mg/kg (range 0.19-0.21 mg/kg), and the average dose using transmucosal oral administration was 0.20 mg/kg (range 0.19-0.21 mg/kg). Blood samples were obtained at 0, 5, 30 minutes and 1, 2, 4, 8, 12, 24, 48, and 72 hours post dose.
The AUC represents the area under the curve or the total amount of drug exposure to the animal following administration by the two different dosage forms. […] Absorption half-life is the amount of time it takes for half of what is left at the site of absorption to be absorbed.

[7] = Canine carprofen study (caplet, TMOM, subcutaneous injection); type: in vivo, dog; conditions: dogs
[8] = Canine anesthetized carprofen absorption study; type: in vivo, dog; conditions: TMOM
Experimental: A canine anesthetized absorption study was also carried out. […] The carprofen was administered using a transmucosal oral mist. Blood samples were taken 0, 5, 15, 30 min, and 1, 2, 4, 8, 12, and 24 hours post-dose. Jugular and cephalic vein samples were obtained 5, 15 and 30 and 1 and 2 hours post-dose. The target dosage was 2.2 mg/kg (50 mg/mL Rimadyl® injectable solution, 300 μL (15 mg), target dose range 1.9-2.5 mg/kg).

[9] = Canine anesthetized clemastine absorption study; type: in vivo, dog; conditions: anesthetized canine subjects, TMOM
Experimental: A canine anesthetized absorption study was also carried out.

[10] = equine, oral gavage; Törneke et al. 2003; cited from earlier work
[11] = in vivo; conditions: dog, plasma, po, 1 mg/kg
Experimental: (§2) The target dose for canine subjects was 1 mg/kg (both transmucosal oral administration and tablets). The average tablet dose was 0.96 mg/kg (0.95-0.97 mg/kg) and the average transmucosal oral administration dose was 0.97 mg/kg (0.91-1.06 mg/kg) administered in a spray volume of 400-650 μL using 4-7 pumps of the spray device. The target dose for feline subjects was also 1 mg/kg for both transmucosal oral administration and tablets. The average tablet dose of 1.07 mg/kg (0.89-1.22 mg/kg) and the average transmucosal oral administration dose was 0.95 mg/kg (0.83-1.14 mg/kg) administered in a spray volume of 100-200 μL using 1-2 pumps of the spray device. The target dose for equine subjects was 0.1 mg/kg for both transmucosal oral administration and tablets. The average tablet dose (via stomach tube) was 0.1 mg/kg (0.10-0.11 mg/kg) and the average transmucosal oral administration dose was 0.1 mg/kg (0.09-0.11 mg/kg) administered in a spray volume of 1.4-1.7 mL using 14-17 pumps of the spray device.
(§3) Blood samples were taken 5, 15, 30 min, 1, 2, 4, 7, 12, 24 hours post dose.

[12] = in vivo; conditions: horse, plasma, po, 0.1 mg/kg
Experimental: as §2, §3

[13] = Clemastine two-way crossover, tablets vs TMOM, canine
Experimental: as §2, §3

[14] = Clemastine two-way crossover, tablets (stomach tube) vs TMOM, equine
Experimental: as §2, §3

[15] = Enrofloxacin feline study, tablets vs TMOM; type: in vivo, cat; conditions: cats
Experimental: A six cat, two-way crossover study was carried out to compare conventional oral administration (i.e., tablets, Baytril®) with transmucosal oral administration (Baytril® 100; 100 mg of enrofloxacin, L-arginine base 200 mg, n-butyl alcohol 30 mg, benzyl alcohol (as a preservative) 20 mg, and water for injection, q.s.). The target was 5 mg/kg enrofloxacin. The average tablet dose was 4.7 mg/kg and the average TMOM™ dose was 4.9 mg/kg (250-300 μL).

[16] = dogs
Experimental: A six dog, two-way crossover experiment was carried out with a target dose of 6.0 mg/kg propofol administered by IV, and 30.0 mg/kg of propofol using transmucosal oral administration.

[17] = Zolpidem two-way crossover, tablet vs TMOM, canine; conditions: for absorption time and absorption half-life, TMOM vs tablet / peak plasma concentration (Cmax), TMOM vs tablet: dogs
Experimental: (§1) A six animal (canine and feline) two-way crossover experiment was carried out in which the subjects were administered a zolpidem tablet or a transmucosal oral mist of a 2.5% zolpidem tartrate solution.
Canine subjects were administered tablets (average dose 0.55 mg/kg (0.40-0.63 mg/kg)) or a transmucosal oral mist (average dose 0.55 mg/kg (0.42-0.62 mg/kg)). The transmucosal oral mist administration used a spray volume of 200-250 μL in 2-3 pumps of the spray dispenser. By comparison, the average human dose is 0.08-0.17 mg/kg

[18] = Zolpidem two-way crossover, tablet vs TMOM, feline
Experimental: as §1
Feline subjects were administered tablets (average dose 0.74 mg/kg) or a transmucosal oral mist (average dose 0.72 mg/kg). The transmucosal oral mist used a spray volume of 100 μL in 1 pump of the spray dispenser.

[19] = Milbemycin canine study, tablets vs TMOM; type: in vivo, dog; conditions: dogs
Experimental: A twelve dog random parallel design was carried out to compare conventional oral administration (i.e., tablets) of Milbemycin with transmucosal oral administration. The tablets used were Interceptor® Flavor Tab®, 5.75 mg and 11.5 mg, providing an average dose of 0.78 mg/kg (0.50-0.99 mg/kg).

[20] = ~0.5 mg/kg, listed as zolpidem tartrate

## C[C@H]1O[C@@H](O[C@H]2[C@@H](O)C[C@H](O[C@H]3[C@@H](O)C[C@H](O[C@H]4CC[C@@]5(C)[C@H](CC[C@@H]6[C@@H]5C[C@@H](O)[C@]5(C)[C@@H](C7=CC(=O)OC7)CC[C@]65O)C4)O[C@@H]3C)O[C@@H]2C)C[C@H](O)[C@@H]1O [Digoxin, (3β,5β,12β)-3-[(O-2,6-dideoxy-β-D-ribo-hexopyranosyl-(1,4)-O-2,6-dideoxy-β-D-ribo-hexopyranosyl-(1,4)-O-2,6-dideoxy-β-D-ribo-hexopyranosyl)oxy]-12,14-dihydroxy-card-20(22)-enolide]
[1]; in chloroform
  solubility: slightly soluble
[1]; in diluted (e.g., about 50%) alcohol
  solubility: slightly soluble
[1]; in ether
  solubility: practically insoluble
[1]; in pyridine
  solubility: freely soluble
[1]; in water
  solubility: practically insoluble

## Cc1cnc(NC(=O)C2=C(O)c3ccccc3S(=O)(=O)N2C)s1 [Meloxicam, 4-hydroxy-2-methyl-N-(5-methyl-2-thiazolyl)-2H-1,2-benzothiazine-3-carboxamide-1,1-dioxide]
[2]
  pH needed for meloxicam to remain in solution: greater than 8.0
  pH value of solution causing meloxicam precipitation: less than 8
[2]; 1% meloxicam, 85:15 water:ethanol, initial apparent pH of 12 reduced by HCl
  apparent pH at which a precipitate formed: 7.7
[2]; 1% meloxicam, 100% water, titrated with HCl (aq)
  pH at which meloxicam precipitation was observed: 7.2
[2]; 80% water/15% EtOH/5% Poloxamer 188, 1 M NaOH added to pH of 10
  dissolution of 1% meloxicam: dissolve
[2]; 80% water/15% EtOH/5% Poloxamer 188, acidified to pH of 7 with 0.2 M HCl
  dissolution of 1% meloxicam: precipitate
[2]; 80% water/15% EtOH/5% Poloxamer 188, additional 1 M NaOH, pH to 8
  dissolution of 1% meloxicam: redissolved and remained in solution
[2]; 80% water/15% EtOH/5% Poloxamer 188, pH of approximately 5.8
  dissolution of 1% meloxicam: did not dissolve completely
[2]; 100% water, pH adjusted to 10.1
  dissolution of 1% meloxicam: redissolved
[2]; 100% water, pH then reduced to approximately 7.8
  dissolution of 1% meloxicam: no further precipitation
[3]
  physical stability of the meloxicam solution: greater with PVA than Polysorbate 80 or glycerin
[4]
  dissolution of 1% meloxicam: did not dissolve
[5]; anesthetized dogs, at 30 min and 4 h
  jugular plasma levels as compared to cephalic (systemic) levels: higher
[5]; dogs
  part of the dose in an awake animal delivered transmucosally: ≤ 90%
[6]
  bioequivalence to meloxicam administered via an oral suspension: bioequivalent

## CC(C(=O)O)c1ccc2c(c1)[nH]c1ccc(Cl)cc12 (stereo not shown) [carprofen]
[7]
  Cmax and AUC values, caplet vs transmucosal oral administration: very similar
  Cmax of the subcutaneous injection relative to caplet or transmucosal oral administration: approximately half
  Tmax, transmucosal oral administration vs caplet: shorter
  absorption and Tmax, subcutaneous injection vs caplet or TMOM: slower absorption and greater time to peak concentrations
  absorption, transmucosal oral administration vs caplet: slightly faster
[7]; transmucosal oral administration
  lag time: no lag time
[7]; caplet, TMOM, subcutaneous injection
  AUC values of the three administration methods: all similar
[8]; anesthetized dogs, at 30 min
  plasma jugular levels as compared to cephalic levels: higher
[8]; dogs
  AUC for anesthetized animals relative to awake animals: approximately 25%

## CN1CCC[C@@H]1CCO[C@](C)(c1ccccc1)c1ccc(Cl)cc1 [clemastine]
[9]
  absorption via the transmucosal route: readily absorbed
cats
  absorption: well absorbed
Feline subjects
  salivation: mild to severe
feline, ~1 mg/kg, appears to be an artifact of salivation
  AUC values, transmucosal oral vs tablet: Lower
[10]
  t1/2: 2.9 h
[11]
  Tmax: ~10 min
[12]
  half-life: 168 min
[13]; canine subjects
  salivation: none to moderate
[13]; canine, ~1 mg/kg
  peak (Cmax), transmucosal oral vs tablet: much higher
[13]; dogs, 1 mg/kg
  AUC and Cmax, TMOM route vs oral tablet route: about an order of magnitude greater
[14]; 0.1 mg/kg
  Tmax, transmucosal oral vs oral gavage of tablets: shorter
  bioavailability, transmucosal oral vs oral gavage of tablets: significantly better
[14]; oral gavage
  bioavailability of clemastine in tablet form: extremely poor

## CCN1CCN(c2cc3c(cc2F)c(=O)c(C(=O)O)cn3C2CC2)CC1 [enrofloxacin]
[15]; TMOM
  lag time in uptake: no lag time
[15]; TMOM, 5 min time point
  jugular plasma concentrations as compared to cephalic concentrations: Consistently and significantly higher
[15]; ~5 mg/kg
  AUC, Cmax, Tmax or t1/2 values, transmucosal vs conventional administration: essentially no difference

## CC(C)c1cccc(C(C)C)c1O [propofol]
[16]
  uptake using transmucosal oral administration: rapid
[16]; TMOM ~30 mg/kg vs IV ~6 mg/kg
  Cmax value compared to IV administration: somewhat lower
[16]; TMOM ~30 mg/kg, by 2 hours
  part of transmucosally administered dose absorbed: Greater than 90%

## Cc1ccc(-c2nc3ccc(C)cn3c2CC(=O)N(C)C)cc1 [zolpidem, N,N-6-trimethyl-2-p-tolyl-imidazo[1,2-a]pyridine-3-acetamide]
[17]; canine, 12 minutes after administration
  vomiting after TMOM administration: One of the canine subjects vomited
[17]; canine, TMOM
  time within which substantially all of the dose was absorbed: ≤ 12 min
[17]; canine, ~0.5 mg/kg
  AUC, TMOM vs tablet: greater
  Tmax, TMOM vs tablet: shorter
[17]; ~0.5 mg/kg
  absorption time and absorption half-life, TMOM vs tablet: shorter
  peak plasma concentration (Cmax), TMOM vs tablet: greater
[17]; [20]
  absorption time and absorption half-life, TMOM vs tablet: significantly lower (shorter)
  peak plasma concentration (Cmax), TMOM vs tablet: higher
[18]; cats, within experimental error
  absorption time, peak plasma concentration, and total absorption, TMOM vs tablet: comparable
[18]; feline, salivation can lead to reduced absorption
  AUC, TMOM vs tablet: lower

## Milbemycin
[19]
  variability of plasma concentrations, transmucosal vs tablet: less variable
[19]; 0.28 mg/kg
  uptake by transmucosal oral administration: very good
[19]; corrected for dosage
  bioavailability, transmucosal oral administration vs conventional tablet: similar
